From US5725885A, “Composition for enhanced bioremediation of oil” (BioNutraTech, priority 1995, dated 1998) come the findings set out here.

The test system of assay [1] is Mysidopsis bahia. Description: 48 hour acute static renewal toxicity bioassay, Mysidopsis bahia (E.P.A./600/4-85/013). Format: in vivo. The following applies: EPA Probit Analysis. The method, then:
(§1) A nutrient mixture and coating were prepared as described in example 1. The toxicity of the product as expressed by reduced survival of organisms exposed to various dilutions of the product was determined through a 48 hour acute static renewal bioassay using Mysidopsis bahia and Cyprinodon variegatus. E.P.A./600/4-85/013 test protocol was followed. All organisms were maintained at room temperature with a light/dark cycle of 16/8. Dilution water was made from Tropic Marine Synthetic Sea Salt and was aerated for 24 hours before use in the test. The test was performed in 600 ml polypropylene diSPo beakers rinsed in the dilution water. Ten organisms of Mysidopsis bahia were placed in 200 ml of dilution water making a 5 cm depth. Ten organisms of Cyprinodon variegatus were placed in 500 ml of dilution water making a 9.5 cm depth.
(§2) Dissolved oxygen, pH, conductivity and salinity, alkalinity and hardness were measured before water renewal. CdCl supplied by the E.P.A. was used as the reference toxicant for both of the Mysidopsis and Cyprinodon organisms. Both the Mysidopsis and the Cyprinodons used in this test were obtained from Aquatox, Inc., and were approximately 27 days old at the time of testing. Both batches of organisms were acclimated to the proper salinity, by adding 300 ml of synthetic, fresh water, every hour until test initiation. […]

Assay [2] has as its system Cyprinodon variegatus. Put plainly: 48 hour acute static renewal toxicity bioassay, Cyprinodon variegatus (E.P.A./600/4-85/013). The note with it: EPA Probit Analysis. Format: in vivo. Here is the method:
as §1, §2

Consider `[Cl][Cd][Cl]` [CdCl], for which the results for the “EC50 (reduced survival), reference toxicant” value in assay [1] and in assay [2] were 0.1185 µg/mL and 7.8237 µg/mL, respectively.
